melting point [°C] | SMILES
135 | O=C(NCc1ccccc1-c1ccccc1C(=O)NCCc1ccccn1)c1ccccc1 [Example 4 b, 2′-(Benzoylaminomethyl)biphenyl-2-carboxylic acid 2-(2-pyridyl)ethylamide]
99 | O=C(NCc1ccccc1-c1ccccc1C(=O)NCCc1ccccn1)Nc1ccccc1 [Example 5 b, 2′-[(3-Phenylureido)methyl]biphenyl-2-carboxylic acid 2-(2-pyridyl)ethylamide]

SMILES | melting point [°C]
CC(C)CCNC(=O)c1ccccc1-c1ccccc1CNC(=O)Nc1ccccc1 [Example 5 a, 2′-[(3-Phenylureido)methyl]biphenyl-2-carboxylic acid (3-methylbutyl)amide] | 194

Source: patent publication US7514582B2, “2′-substituted 1,1′-biphenyl-2-carboxamides, processes for their preparation, their use as medicaments, and pharmaceutical preparations comprising them” (Sanofi-Aventis Deutschland GmbH, priority 1999, dated 2009)
